Measurements published in patent US9156831B2, “Chemical compounds” (ASTRAZENECA AB, priority 2013, dated 2015).

Columns and labels:
Test in all cases: Cell proliferation assay (MTS)
Type in all cases: cell-based, human
T47D = tested on: T47D
Description: (§1) The sensitivity of a panel of human cancer cell lines to the effects of compounds was determined in a standard proliferation assay.
(§2) Cells were plated in 96 well plates at densities of 1000-6000 cells per well in RPMI media containing 10% FBS. After incubation at 37° C. for 16 hours, various concentrations of compound were added to the assay plates. After incubation for an additional 72 h, the viable cells were determined by the addition of MTS reagent (Promega #3582) to each well for 2 h. MTS is a tetrazolium salt that is bioreduced by metabolically active cells in the presence of an electron coupling reagent to formazan. The formazan product was then quantitated by absorbance at 490 nm, as an indicator of the relative number of live cells. In order to determine the GI50 (concentration at which growth of cells was inhibited by 50%) the relative number of cells present at the time of drug addition was determined by comparison with the MTS readout before the drug was added, and this value was subtracted from the 72 hr value of untreated cells as a measure of cell growth during the assay.

MCF7 = tested on: MCF7
Description: as §1, §2

IM95M = tested on: IM95M
Description: (§3) The sensitivity of a panel of human cancer cell lines to the effects of compounds was determined in a standard proliferation assay. Cell lines were sourced through the AstraZeneca Cell Bank.
as §2

JEKO1 = tested on: JEKO1
Description: as §3, §2

HCC1187 = tested on: HCC1187
Description: as §3, §2

SW48 = tested on: SW48
Description: as §3, §2

THP1 = tested on: THP1
Description: as §3, §2

[…] = tested on: […]
Description: as §1, §2

PANC0203 = tested on: PANC0203
Description: as §1
(§4) Cells were plated in 96 well plates at densities of 1000-6000 cells per well in RPMI media containing 10% FBS. After incubation at 37° C. for 16 hours, various concentrations of compound were added to the assay plates. After incubation for an additional 72 h, the viable cells were determined by the addition of MTS reagent (Promega #3582) to each well for 2 h. […] The formazan product was then quantitated by absorbance at 490 nm, as an indicator of the relative number of live cells. In order to determine the GI50 (concentration at which growth of cells was inhibited by 50%) the relative number of cells present at the time of drug addition was determined by comparison with the MTS readout before the drug was added, and this value was subtracted from the 72 hr value of untreated cells as a measure of cell growth during the assay.

RT11284 = tested on: RT11284
Description: as §1, §2

CALU3 = tested on: CALU3
Description: as §3, §4

AGS = tested on: AGS
Description: as §1, §2

HGC27 = tested on: HGC27
Description: as §1, §2

MKN1 = tested on: MKN1
Description: as §1, §2

SNU484 = tested on: SNU484
Description: as §1, §2

HPAC = tested on: HPAC
Description: as §1, §2

HCC95 = tested on: HCC95
Description: as §3, §2

HT29 = tested on: HT29
Description: as §1, §4

H2170 = tested on: H2170
Description: as §3, §2

HT1376 = tested on: HT1376
Description: as §3, §2

DU145 = tested on: DU145
Description: as §1, §4

MDAMB468 = tested on: MDAMB468
Description: as §1, §4

HCCC9810 = tested on: HCCC9810
Description: as §1, §2

SW620 = tested on: SW620
Description: as §1, §4

HLE = tested on: HLE
Description: as §1, §4

HCA7 = tested on: HCA7
Description: as §1, §4

HUH7 = tested on: HUH7
Description: as §1, §2

HCC1806 = tested on: HCC1806
Description: as §1, §2

WSUDLCL2 = tested on: WSUDLCL2
Description: as §1, §4

LOVO = tested on: LOVO
Description: as §1, §2

SW1990 = tested on: SW1990
Description: as §1, §2

CMK = tested on: CMK
Description: as §1, §2

H1299 = tested on: H1299
Description: as §1, §2

HCT116 = tested on: HCT116
Description: as §1, §2

HEL9217 = tested on: HEL9217
Description: as §3, §2

HX147 = tested on: HX147
Description: as §3, §2

JJN3 = tested on: JJN3
Description: as §1, §2

K562 = tested on: K562
Description: as §1, §2

MDAMB157 = tested on: MDAMB157
Description: as §1, §2

MEC1 = tested on: MEC1
Description: as §1, §2

OCILY19 = tested on: OCILY19
Description: as §1, §2

RAJI = tested on: RAJI
Description: as §1, §2

YAPC = tested on: YAPC
Description: as §3, §2

[1] = Homo sapiens, Breast, PIK3CA MUT
[2] = Homo sapiens, Stomach, PIK3CA MUT
[3] = Homo sapiens, Breast, PIK3CA WT
[4] = Homo sapiens, Pancreas, PIK3CA WT
[5] = Homo sapiens, Blood/lymph, PIK3CA WT

`CCn1nc(C2CCN(C(=O)CCO)CC2)nc1-c1cnc(N)c(-c2nnc(C(C)(C)C)o2)n1` [Example 3, 1-(4-(5-(5-amino-6-(5-tert-butyl-1,3,4-oxadiazol-2-yl)pyrazin-2-yl)-1-ethyl-1H-1,2,4-triazol-3-yl)piperidin-1-yl)-3-hydroxypropan-1-one] was tested, and the Category (T47D) was “Sensitive (sensitive (GI50<=1.0 μM))”, the GI50 (T47D; [1]) was 0.198 µM and the Category (MCF7) was “Sensitive (sensitive (GI50<=1.0 μM))”. For the same compound, the GI50 (MCF7; [1]) was 0.309 µM, the Category (IM95M) was “Sensitive (sensitive (GI50<=1.0 μM))” and the GI50 (IM95M; [2]) was 0.436 µM. For the same compound, the Category (JEKO1) was “Sensitive (sensitive (GI50<=1.0 μM))”, the GI50 (JEKO1; Homo sapiens, JeKo-1, Blood/lymph, PIK3CA WT) was 0.499 µM and the Category (HCC1187) was “Sensitive (sensitive (GI50<=1.0 μM))”. The GI50 (HCC1187; [3]) was 0.509 µM, the Category (SW48) was “Sensitive (sensitive (GI50<=1.0 μM))” and the GI50 (SW48; Homo sapiens, Colon, PIK3CA MUT) was 0.513 µM. The Category (THP1) was “Sensitive (sensitive (GI50<=1.0 μM))”, the GI50 (THP1; Homo sapiens, THP-1, Blood/lymph, PIK3CA WT) was 0.528 µM and the GI50 ([…]; Homo sapiens) was 0.792 µM. For the same compound, the Category ([…]; […]) was “Sensitive (sensitive (GI50<=1.0 μM))”, the Category (PANC0203) was “Sensitive (sensitive (GI50<=1.0 μM))” and the GI50 (PANC0203; Homo sapiens, Panc 02.03, Pancreas, PIK3CA WT) was 0.963 µM. The Category (RT11284) was “Resistant (resistant (GI50>1.0 μM))”, the GI50 (RT11284; Homo sapiens, RT112/84, Bladder, PIK3CA WT) was 1.17 µM and the Category (CALU3) was “Resistant (resistant (GI50>1.0 μM))”. For the same compound, the GI50 (CALU3; Homo sapiens, Calu-3, Lung, PIK3CA WT) was 1.3 µM, the Category (AGS) was “Resistant (resistant (GI50>1.0 μM))” and the GI50 (AGS; [2]) was 1.41 µM. For the same compound, the Category (HGC27) was “Resistant (resistant (GI50>1.0 μM))”, the GI50 (HGC27; Homo sapiens, HGC-27, Stomach, PIK3CA MUT) was 1.5 µM and the Category (MKN1) was “Resistant (resistant (GI50>1.0 μM))”. For the same compound, the GI50 (MKN1; Homo sapiens, MKN-1, Stomach, PIK3CA MUT) was 1.58 µM, the Category (SNU484) was “Resistant (resistant (GI50>1.0 μM))” and the GI50 (SNU484; Homo sapiens, SNU-484, Stomach, PIK3CA WT) was 1.79 µM. For the same compound, the Category (HPAC) was “Resistant (resistant (GI50>1.0 μM))”, the GI50 (HPAC; [4]) was 2.16 µM and the Category (HCC95) was “Resistant (resistant (GI50>1.0 μM))”. The GI50 (HCC95; Homo sapiens, Lung, PIK3CA WT) was 3.11 µM, the Category (HT29) was “Resistant (resistant (GI50>1.0 μM))” and the GI50 (HT29; Homo sapiens, HT-29, Colon, PIK3CA MUT) was 5.48 µM. For the same compound, the Category (H2170) was “Resistant (resistant (GI50>1.0 μM))”, the GI50 (H2170; Homo sapiens, NCI-H2170, Lung, PIK3CA WT) was 7.64 µM and the Category (HT1376) was “Resistant (resistant (GI50>1.0 μM))”. The GI50 (HT1376; Homo sapiens, HT-1376, Bladder, PIK3CA WT) was 8.2 µM, the Category (DU145) was “Resistant (resistant (GI50>1.0 μM))” and the GI50 (DU145; Homo sapiens, DU-145, Prostate, PIK3CA WT) was 8.24 µM. The Category (MDAMB468) was “Resistant (resistant (GI50>1.0 μM))”, the GI50 (MDAMB468; Homo sapiens, MDA-MB-468, Breast, PIK3CA WT) was 9.33 µM and the Category (HCCC9810) was “Resistant (resistant (GI50>1.0 μM))”. For the same compound, the GI50 (HCCC9810; Homo sapiens, Bile duct, PIK3CA WT) was 10 µM, the Category (SW620) was “Resistant (resistant (GI50>1.0 μM))” and the GI50 (SW620; Homo sapiens, SW-620, Colon, PIK3CA WT) was 13.4 µM. The Category (HLE) was “Resistant (resistant (GI50>1.0 μM))”, the GI50 (HLE; Homo sapiens, Liver, PIK3CA WT) was 13.5 µM and the Category (HCA7) was “Resistant (resistant (GI50>1.0 μM))”. The GI50 (HCA7; Homo sapiens, HCA-7, Colon, PIK3CA WT) was 15.5 µM, the Category (HUH7) was “Resistant (resistant (GI50>1.0 μM))” and the GI50 (HUH7; Homo sapiens, Huh-7, Liver, PIK3CA WT) was 16 µM. For the same compound, the Category (HCC1806) was “Resistant (resistant (GI50>1.0 μM))”, the GI50 (HCC1806; [3]) was 16.7 µM and the Category (WSUDLCL2) was “Resistant (resistant (GI50>1.0 μM))”. The GI50 (WSUDLCL2; [5]) was 17.7 µM, the Category (LOVO) was “Resistant (resistant (GI50>1.0 μM))” and the GI50 (LOVO; Homo sapiens, Colon, PIK3CA WT) was 18.6 µM. For the same compound, the Category (SW1990) was “Resistant (resistant (GI50>1.0 μM))”, the GI50 (SW1990; [4]) was 28.3 µM and the Category (CMK) was “Resistant (resistant (GI50>1.0 μM))”. The GI50 (CMK; [5]) was 28.9 µM, the Category (H1299) was “Resistant (resistant (GI50>1.0 μM))” and the GI50 (H1299; Homo sapiens, NCI-H1299, Lung, PIK3CA WT) was 30 µM. The Category (HCT116) was “Resistant (resistant (GI50>1.0 μM))”, the GI50 (HCT116; Homo sapiens, HCT-116, Colon, PIK3CA MUT) was 30 µM and the Category (HEL9217) was “Resistant (resistant (GI50>1.0 μM))”. For the same compound, the GI50 (HEL9217; Homo sapiens, HEL 92.1.7, Blood/lymph, PIK3CA INCON) was 30 µM, the Category (HX147) was “Resistant (resistant (GI50>1.0 μM))” and the GI50 (HX147; Homo sapiens, Lung, PIK3CA WT) was 30 µM. For the same compound, the Category (JJN3) was “Resistant (resistant (GI50>1.0 μM))”, the GI50 (JJN3; Homo sapiens, JJN-3, Blood/lymph, PIK3CA WT) was 30 µM and the Category (K562) was “Resistant (resistant (GI50>1.0 μM))”. For the same compound, the GI50 (K562; [5]) was 30 µM, the Category (MDAMB157) was “Resistant (resistant (GI50>1.0 μM))” and the GI50 (MDAMB157; Homo sapiens, MDA-MB-157, Breast, PIK3CA WT) was 30 µM. For the same compound, the Category (MEC1) was “Resistant (resistant (GI50>1.0 μM))”, the GI50 (MEC1; [5]) was 30 µM and the Category (OCILY19) was “Resistant (resistant (GI50>1.0 μM))”. The GI50 (OCILY19; Homo sapiens, OCI-LY19, Blood/lymph, PIK3CA WT) was 30 µM, the Category (RAJI) was “Resistant (resistant (GI50>1.0 μM))” and the GI50 (RAJI; [5]) was 30 µM. The Category (YAPC) was “Resistant (resistant (GI50>1.0 μM))” and the GI50 (YAPC; [4]) was 30 µM.
